Experimental findings from patent US20240067631A1, “PYRAZOLE DERIVATIVES USEFUL AS NAMPT MODULATORS” (Cytokinetics, Inc., priority 2020, published 2024) are described below.

Molecules are shown by their SMILES.

A word on the EC50: it is the midpoint of the concentration-response curve.

The target of the assay is human NAMPT (Homo sapiens (Human), UniProt P43490). Nature of the assay: Human recombinant enzyme assay (NMN fluorescence biochemical assay). As to conditions: 6 nM human NAMPT, 60 min; for AC1.4 Human: concentration of compound that generates 40% higher activity over basal; for EC50: concentration that gives half-maximal activation. A digest of the protocol: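 Recombinant human NAMPT (6 nM) with 2.5 mM ATP, […] PRPP and […] nicotinamide in HEPES pH 7.2 with DTT, CHAPS, NaCl, MgCl2; 60 min at ambient temperature. NMN derivatised with acetophenone/KOH/formic acid, fluorescence read at 355/460 nm. AC1.4 (40% above basal) and EC50 reported.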
Sequence of human NAMPT (P43490 whole entry): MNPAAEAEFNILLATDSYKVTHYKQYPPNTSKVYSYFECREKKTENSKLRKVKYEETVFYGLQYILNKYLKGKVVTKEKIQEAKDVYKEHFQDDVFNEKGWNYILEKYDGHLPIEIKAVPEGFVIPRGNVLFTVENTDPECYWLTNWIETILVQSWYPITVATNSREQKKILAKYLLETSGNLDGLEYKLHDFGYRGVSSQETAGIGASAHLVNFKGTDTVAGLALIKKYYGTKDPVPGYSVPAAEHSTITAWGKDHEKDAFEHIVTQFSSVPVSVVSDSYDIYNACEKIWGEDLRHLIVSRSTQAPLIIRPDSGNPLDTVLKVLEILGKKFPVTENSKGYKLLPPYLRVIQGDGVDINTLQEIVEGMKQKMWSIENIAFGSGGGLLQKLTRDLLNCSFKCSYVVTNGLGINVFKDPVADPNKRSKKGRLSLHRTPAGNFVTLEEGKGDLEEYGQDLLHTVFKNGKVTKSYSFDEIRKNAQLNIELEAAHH

In the case of `CCCN(CCc1cn[nH]c1)c1nc(C(N)=O)nc(C)c1C` [Compound 106, 4-((2-(1H-pyrazol-4-yl)ethyl)(propyl)amino)-5,6-dimethylpyrimidine-2-carboxamide], the “AC1.4 Human” value was determined as 1.7115 µM and the EC50 worked out at 32700 nM.
Take `Cc1cccnc1[C@@H](C)NC(=O)c1nc(C)c(C)c(NCCc2cn[nH]c2)n1` [Compound 37, (R)-4-((2-(1H-pyrazol-4-yl)ethyl)amino)-5,6-dimethyl-N-(1-(3-methylpyridin-2-yl)ethyl)pyrimidine-2-carboxamide]: the “AC1.4 Human” value was determined as 0.2055 µM and the EC50 stood at 1190 nM.
With `Cc1nc(C(=O)NC(c2ccccc2)c2nccn2C)nc(NCCc2cn[nH]c2)c1C` (stereo not drawn) [Compound 40, 4-((2-(1H-pyrazol-4-yl)ethyl)amino)-5,6-dimethyl-N-((1-methyl-1H-imidazol-2-yl)(phenyl)methyl)pyrimidine-2-carboxamide], the “AC1.4 Human” value came out at 0.214 µM and the EC50 turned out to be 1270 nM.
Regarding `Cc1nc(C(=O)NCc2ccccn2)nc(NCCc2cn[nH]c2)c1C` [Compound 93, 4-((2-(1H-pyrazol-4-yl)ethyl)amino)-5,6-dimethyl-N-(pyridin-2-ylmethyl)pyrimidine-2-carboxamide], the “AC1.4 Human” value is 1.244 µM and the EC50 came to 14900 nM.
On the same counts, the results for `Cc1nc(C(=O)N[C@H](C)c2ccco2)nc(NCCc2cn[nH]c2)c1C` [Compound 75, (R)-4-((2-(1H-pyrazol-4-yl)ethyl)amino)-N-(1-(furan-2-yl)ethyl)-5,6-dimethylpyrimidine-2-carboxamide] are 0.7725 µM and 2620 nM.
For the molecule `Cc1nc(C(=O)N[C@H](C)c2coc3ccccc23)nc(NCCc2cn[nH]c2)c1C` [Compound 65, (R)-4-((2-(1H-pyrazol-4-yl)ethyl)amino)-N-(1-(benzofuran-3-yl)ethyl)-5,6-dimethylpyrimidine-2-carboxamide], the “AC1.4 Human” value stood at 0.4805 µM and the EC50 was determined as 1690 nM.
As for `Cc1nc(C(=O)NC(C)c2cncs2)nc(NCCc2cn[nH]c2)c1C` (stereo not drawn) [Compound 103, 4-((2-(1H-pyrazol-4-yl)ethyl)amino)-5,6-dimethyl-N-(1-(thiazol-5-yl)ethyl)pyrimidine-2-carboxamide], the “AC1.4 Human” value is 1.6375 µM and the EC50 was determined as 21500 nM.
In the case of `Cc1nc(C(=O)N(C)[C@@H](C)c2ccccc2Cl)nc(NCCc2cn[nH]c2)c1C` [Compound 29, (S)-4-((2-(1H-pyrazol-4-yl)ethyl)amino)-N-(1-(2-chlorophenyl)ethyl)-N,5,6-trimethylpyrimidine-2-carboxamide], the “AC1.4 Human” value was found to be 0.1725 µM and the EC50 was 1870 nM.
Take `Cc1nc(C(=O)N2CCOCC2(C)c2ccccc2)nc(NCCc2cn[nH]c2)c1C` (stereo not drawn) [Compound 25, (4-((2-(1H-pyrazol-4-yl)ethyl)amino)-5,6-dimethylpyrimidin-2-yl)(3-methyl-3-phenylmorpholino)methanone]: the “AC1.4 Human” value is 0.106 µM and the EC50 came out at 872 nM.
On the same counts, the results for `Cc1nc(C(=O)N[C@H](C)c2cccnc2)nc(NCCc2cn[nH]c2)c1C` [Compound 127, (R)-4-((2-(1H-pyrazol-4-yl)ethyl)amino)-5,6-dimethyl-N-(1-(pyridin-3-yl)ethyl)pyrimidine-2-carboxamide] are 32.9385 µM and 60000 nM.
The like results for `Cc1nc(C(=O)NCC2CN(C(=O)c3ccccc3)C2)nc(NCCc2cn[nH]c2)c1C` [Compound 57, 4-((2-(1H-pyrazol-4-yl)ethyl)amino)-N-((1-benzoylazetidin-3-yl)methyl)-5,6-dimethylpyrimidine-2-carboxamide] were, in that order, 0.396 µM and 2880 nM.
The like results for `Cc1nc(C(=O)N(C)[C@H](C)c2ccccc2Cl)nc(NCCc2cn[nH]c2)c1C` [Compound 53, (R)-4-((2-(1H-pyrazol-4-yl)ethyl)amino)-N-(1-(2-chlorophenyl)ethyl)-N,5,6-trimethylpyrimidine-2-carboxamide] were, in that order, 0.3335 µM and 2600 nM.
